Assay results published in US7879795B2, “Enhancement of tigecycline potency using efflux pump inhibitors” (Mpex Pharmaceuticals, Inc., priority 2004, dated 2011).

System: Klebsiella pneumonia, Proteus mirabilis, Morganella morganii, P. aeruginosa strains
Assay: Tigecycline susceptibility of various bacterial strains in combination with compound 21 (Example 85)
Assay type: cell-based
Settings: Example 85, written in present tense
Description: Standard CLSI methods for antimicrobial susceptibility testing, as outlined in National Committee for Clinical Laboratory Standards 2003, Methods for Dilution Antimicrobial Susceptibility Tests for Bacteria That Grow Aerobically—-6th ed., Approved Standard, NCCLS Document M7-A6, Vol 20 No. 2., are used to assess the activity of tigecycline in combination with compound 21. The following strains are tested: • Klebsiella pneumonia: G340, G595, G815, GC7335, GC7736, GC7737, tigecycline resistant mutants derived from G595 and G815 • Proteus mirabilis: G151, GC 7020, GC 6899, GC 6900, GC 7018, GC 7019 • Morganella morganii: G858, G1492, GC7676, GC7677, GC7743, GC7744 • P. aeruginosa: K767, K1523, K1525, XY1, XY3, K153, BXY1, BXY4, K1119, M1, M9, K1455.
Clinical isolates enriched with strains having a decreased susceptibility to tigecycline are also tested.

NCCC[C@H](N)C(=O)N[C@H](Cc1ccc(C(F)(F)F)cc1)C(=O)Nc1cnc2ccccc2c1 [Compound 21, 2-(S),5-Diamino-pentanoic acid [1-(R)-(quinolin-3-ylcarbamoyl)-2-(4-trifluoromethyl-phenyl)-ethyl]amide]
effect on development of resistance to tigecycline: reduces the development of resistance | effect on resistance to tigecycline in bacterial strains: decreases resistance to tigecycline | effect on susceptibility of the strains to tigecycline: increases the susceptibility of the strains to tigecycline
